Reference: patent publication US6642392B1 (priority 1997, dated 2003)
Where two headings read alike, the source gives them in different places.

Assays:
Assay type in all cases: in vivo
[1] = test system: Eiysiphe graminis f. sp. tritici; assay: Test A: wheat powdery mildew, preventive spray on wheat seedlings; conditions: for Test A disease control rating: wheat powdery mildew; for Test A disease control rating (100 = 100% disease control, 0 = no disease control): wheat seedlings sprayed to run-off, inoculated the following day, rating relative to controls, unmarked compounds (standard test rate)
Summary of the method: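 Compounds (3% acetone, 250 ppm Trem 014) sprayed to run-off on wheat seedlings, inoculated next day with spore dust. Incubated 7 days at 20° C before disease rating, 0–100% control relative to untreated controls.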

Phytophthora infestans = conditions: for Test D disease control rating: tomato late blight; for Test D disease control rating (100 = 100% disease control, 0 = no disease control): tomato seedlings sprayed to run-off, inoculated the following day, rating relative to controls, unmarked compounds (standard test rate)
Botrytis cinerea = assay: Test E: gray mold, preventive spray on cucumber seedlings; conditions: for Test E disease control rating: gray mold on cucumber; for Test E disease control rating (100 = 100% disease control, 0 = no disease control): cucumber seedlings sprayed to run-off, inoculated the following day, rating relative to controls, unmarked compounds (standard test rate)
Summary of the method: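 Compounds in 3% acetone were suspended with 250 ppm Trem 014 surfactant and sprayed to run-off on cucumber seedlings. B. cinerea spores were inoculated next day, then 48 h saturated humidity at 20° C and 5 days at 20° C. Disease control rated 0–100% versus controls.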

Puccinia recondita = assay: Test B: wheat leaf rust, preventive spray on wheat seedlings; conditions: for Test B disease control rating: wheat leaf rust; for Test B disease control rating (100 = 100% disease control, 0 = no disease control): wheat seedlings sprayed to run-off, inoculated the following day, rating relative to controls, unmarked compounds (standard test rate)
Summary of the method: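 Wheat seedlings were sprayed to run-off with compound (3% acetone, 250 ppm Trem 014), then inoculated with P. recondita spores the next day. They were held 24 h saturated at 20 °C, then 6 days at 20 °C. Ratings are 0–100% disease control versus controls.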

Pyricularia oryzae = conditions: for Test C disease control rating: rice blast; for Test C disease control rating (100 = 100% disease control, 0 = no disease control): rice seedlings sprayed to run-off, inoculated the following day, rating relative to controls, unmarked compounds (standard test rate)
[2] = 100 = 100% disease control, 0 = no control relative to controls, unmarked entries (standard test concentration)
[3] = 100 = 100% disease control, 0 = no control, unmarked entries (standard test concentration)

Structure (SMILES)	Test A disease control rating (100 = 100% disease control, 0 = no disease control) [1] [%]	Test D disease control rating (100 = 100% disease control, 0 = no disease control) (Phytophthora infestans) [%]	Test E disease control rating (100 = 100% disease control, 0 = no disease control) (Botrytis cinerea) [%]	Test B disease control rating (100 = 100% disease control, 0 = no disease control) (Puccinia recondita) [%]	Test C disease control rating (100 = 100% disease control, 0 = no disease control) (Pyricularia oryzae) [%]	Test A disease control rating [1, 2] [%]	Test D disease control rating (Phytophthora infestans; [3]) [%]	Test E disease control rating (Botrytis cinerea; [3]) [%]	Test B disease control rating (Puccinia recondita; [3]) [%]	Test C disease control rating (Pyricularia oryzae; [3]) [%]	also measured
CCC1(C(=O)NC(C)COc2ccc(Cl)cc2)C(C)C1(Cl)Cl (mixture of isomers) [83a]											Test A disease control rating ([1]; tested at 40 ppm): 0%; Test D disease control rating (Phytophthora infestans; tested at 40 ppm): 0%; Test E disease control rating (Botrytis cinerea; tested at 40 ppm): 0%; Test B disease control rating (Puccinia recondita; tested at 40 ppm): 0%; Test C disease control rating (Pyricularia oryzae; tested at 40 ppm): 32%
CCC1(C(=O)NC(C)COc2c(F)c(F)cc(F)c2F)C(C)C1(Cl)Cl (centres unmarked) [compound 249]	0	0	0	0	94						
C=CCc1cccc(C#N)c1OCC(C)NC(=O)C1(CC)C(C)C1(Cl)Cl (mixture of isomers) [compound 254]	0	0	0	0	53						
CCC1(C(=O)NC(C)COc2ccccc2C(C)(C)C)C(C)C1(Cl)Cl (centres unmarked) [compound 100]											Test A disease control rating ([1]; tested at 40 ppm): 52%; Test D disease control rating (Phytophthora infestans; tested at 40 ppm): 0%; Test E disease control rating (Botrytis cinerea; tested at 40 ppm): 0%; Test B disease control rating (Puccinia recondita; tested at 40 ppm): 0%; Test C disease control rating (Pyricularia oryzae; tested at 40 ppm): 0%
CCC1(C(=O)NC(C)COc2ccccc2)C(C)C1(Cl)Cl (mixture of isomers) [77b]											Test A disease control rating ([1]; tested at 40 ppm): 33%; Test D disease control rating (Phytophthora infestans; tested at 40 ppm): 0%; Test E disease control rating (Botrytis cinerea; tested at 40 ppm): 0%; Test B disease control rating (Puccinia recondita; tested at 40 ppm): 0%; Test C disease control rating (Pyricularia oryzae; tested at 40 ppm): 74%
CCC1(C(=O)NC(C)COc2cc(Cl)c(Cl)cc2Cl)C(C)C1(Cl)Cl (centres unmarked) [compound 242]	0	96	0	0	74						
C[C@H](COc1ccc(F)c(F)c1Br)NC(=O)C(C#N)C(C)(C)C (single isomer, unassigned) [187a]						0	9	6	28	94	
CCC1(C(=O)NC(C)COc2cc(Cl)ccc2C#N)C(C)C1(Cl)Cl (centres unmarked) [compound 239]	0	88	0	0	97						
CCC1(C(=O)NC(C)COc2ccccc2C)C(C)C1(Cl)Cl (mixture of isomers) [compound 95]											Test A disease control rating ([1]; tested at 40 ppm): 52%; Test D disease control rating (Phytophthora infestans; tested at 40 ppm): 0%; Test E disease control rating (Botrytis cinerea; tested at 40 ppm): 0%; Test B disease control rating (Puccinia recondita; tested at 40 ppm): 86%; Test C disease control rating (Pyricularia oryzae; tested at 40 ppm): 94%
CCC1(C(=O)NCC=Cc2cccc(Br)c2)C(C)C1(Cl)Cl (centres unmarked) [compound 160]											Test A disease control rating ([1]; tested at 40 ppm): 57%; Test D disease control rating (Phytophthora infestans; tested at 40 ppm): 85%; Test E disease control rating (Botrytis cinerea; tested at 40 ppm): 0%; Test B disease control rating (Puccinia recondita; tested at 40 ppm): 86%; Test C disease control rating (Pyricularia oryzae; tested at 40 ppm): 52%
CCC1(C(=O)NC(C)COc2ccccc2CC#N)C(C)C1(Cl)Cl (centres unmarked) [compound 103]						0	0	0	26	53	
CC(COc1c(F)cccc1F)NC(=O)C(C#N)C(C)(C)C (mixture of isomers) [29b]						0	23	0	0	100	
CC(COc1c(Cl)cc(Cl)cc1Cl)NC(=O)C(C#N)C(C)(C)C (mixture of isomers) [compound 172]						0	0	95	0	86	
CC(COc1cccc(Cl)c1)NC(=O)C(C#N)C(C)(C)C (single isomer, unassigned) [6a]						0	0	0	0	74	
CCC1(C(=O)NC(C)COc2c(F)ccc(F)c2C#N)C(C)C1(Cl)Cl (mixture of isomers) [compound 258]	74	0	0	27	94						
CCC1(C(=O)NC(C)COc2cc(C)ccc2Cl)C(C)C1(Cl)Cl (centres unmarked) [compound 127]											Test A disease control rating ([1]; tested at 40 ppm): 0%; Test D disease control rating (Phytophthora infestans; tested at 40 ppm): 19%; Test E disease control rating (Botrytis cinerea; tested at 40 ppm): 0%; Test B disease control rating (Puccinia recondita; tested at 40 ppm): 0%; Test C disease control rating (Pyricularia oryzae; tested at 40 ppm): 94%
C[C@H](COc1ccc(Cl)c(Cl)c1)NC(=O)C(C#N)C(C)(C)C (single isomer, unassigned) [181b]						37	0	90	0	74	
C[C@H](COc1ccc(F)c(F)c1F)NC(=O)C(C#N)C(C)(C)C (single isomer, unassigned) [190a]						0	0	6	0	91	
CC(COc1cc(F)ccc1Cl)NC(=O)C(C#N)C(C)(C)C=CF (mixture of isomers) [compound 222]	62	41	0	28	100						
CC(C)(C)C(C#N)C(=O)NC/C=C/c1ccc(F)cc1F (racemic) [compound 273]	86	23	0	0	53						
CCCc1ccccc1OCC(C)NC(=O)C(C#N)C(C)(C)C (mixture of isomers) [21a]						38	4	0	68	99	
CC(COc1ccc(Cl)cc1)NC(=O)C(C#N)C(C)(C)C (single isomer, unassigned) [7b]						77	89	47	0	74	
